In patent publication US7598258B2, “Quinoline derivatives and quinazoline derivatives inhibiting autophosphorylation of macrophage colony stimulating factor receptor” (Kirin Beer Kabushiki Kaisha, priority 2002, dated 2009):

target: T1, mouse c-fms (Mus musculus, UniProt P09581); assay: Inhibition of c-fms autophosphorylation in macrophage-like cell line BAC-1.2F5 by M-CSF stimulation (ELISA); type: cell-based; settings: BAC-1.2F5 cells, human recombinant M-CSF 50 ng/ml, read-out: c-fms autophosphorylation 50% inhibitory concentration (IC50)
T1 construct: Macrophage-like cell line BAC-1.2F5 which expresses c-fms as a M-CSF receptor on cell membranes; endogenous in cells; host or cells: BAC-1.2F5 mouse macrophage-like cell line
T1 sequence (P09581 20-977): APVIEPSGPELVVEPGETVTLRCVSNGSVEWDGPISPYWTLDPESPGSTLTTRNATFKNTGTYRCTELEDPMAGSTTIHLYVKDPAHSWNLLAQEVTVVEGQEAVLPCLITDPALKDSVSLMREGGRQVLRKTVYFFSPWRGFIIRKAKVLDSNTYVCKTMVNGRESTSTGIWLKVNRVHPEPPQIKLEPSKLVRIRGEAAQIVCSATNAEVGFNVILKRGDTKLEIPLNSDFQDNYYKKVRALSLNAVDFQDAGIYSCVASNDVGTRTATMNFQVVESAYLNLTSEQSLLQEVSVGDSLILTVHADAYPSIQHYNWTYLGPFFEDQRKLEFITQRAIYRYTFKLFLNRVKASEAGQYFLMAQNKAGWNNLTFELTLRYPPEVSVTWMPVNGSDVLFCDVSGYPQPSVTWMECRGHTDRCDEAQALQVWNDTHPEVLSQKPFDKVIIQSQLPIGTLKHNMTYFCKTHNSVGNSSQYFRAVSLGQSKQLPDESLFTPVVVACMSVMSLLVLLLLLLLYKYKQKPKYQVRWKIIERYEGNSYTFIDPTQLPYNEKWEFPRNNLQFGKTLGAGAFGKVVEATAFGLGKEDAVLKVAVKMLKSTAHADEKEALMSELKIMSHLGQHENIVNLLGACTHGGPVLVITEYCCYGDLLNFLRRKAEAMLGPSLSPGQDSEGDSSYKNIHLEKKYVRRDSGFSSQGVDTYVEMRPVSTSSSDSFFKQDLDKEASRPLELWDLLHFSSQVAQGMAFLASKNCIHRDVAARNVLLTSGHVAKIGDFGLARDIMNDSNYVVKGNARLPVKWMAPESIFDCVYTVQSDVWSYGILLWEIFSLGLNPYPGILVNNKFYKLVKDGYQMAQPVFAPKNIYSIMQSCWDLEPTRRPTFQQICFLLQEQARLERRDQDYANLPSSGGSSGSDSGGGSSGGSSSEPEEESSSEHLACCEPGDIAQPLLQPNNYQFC
Experimental: Macrophage-like cell line BAC-1.2F5 which expresses c-fms as a M-CSF receptor on cell membranes (CLAUDIA M. et al., J. Cell. Physiol., 130, 420-427 (1987), “Isolation and Characterization of a Cloned Growth Factor Dependent Macrophage Cell Line, BAC1.2F5”) was cultured at 37° C. in a DMEM medium containing L-cell supernatant and 10% fetal calf serum (GIBCO BRL) in a 5% CO2 incubator until about 50 to 70% confluent. The harvested cells were inoculated into wells, each containing the same medium, in a collagen type I coat 96-well flat-bottom plate in an amount of 5.0×10^4 per well, and cultured at 37° C. for 12 hr. Thereafter, the medium was replaced with a DMEM medium containing a 0.1% fetal calf serum and cultured for 12 hr. Thereafter, a test compound dissolved in dimethyl sulfoxide was added to each well, and cells were incubated at 37° C. for one hr. Human recombinant M-CSF was added to a final concentration of 50 ng/ml, and cells were stimulated at 37° C. for 6 min. After the medium was removed, 50 μl of a solubilization buffer (20 mM HEPES (pH 7.4), 150 mM NaCl, 0.2% Triton X-100, 10% glycerol, 5 mM sodium orthovanadylate, 5 mM disodium ethylenediaminetetraacetate, and 2 mM Na4P2O7) was added thereto. The mixture was shaken at 4° C. for 2 hr to prepare a cell extract as an assay sample which was then used for an ELISA assay.
The plate for the ELISA assay was prepared as follows. Phosphate buffered saline (50 μl, pH 7.4) containing 5 μg/ml of anti-phospho-tyrosine antibody (PY20; Transduction Laboratories) was added to a microplate for ELISA (Maxisorp; purchased from NUNC), followed by standing at 4° C. overnight to be immobilized on the wells. Thereafter, each well was washed twice with 200 μl of a Ca- and Mg-free phosphate buffer containing 0.1% Tween-20 (hereinafter referred to as “PBS-T”), and 200 μl of a blocking solution (Dainippon Pharmaceutical Co. Ltd.: BlockAce) was added to each well, and the wells were then allowed to stand at room temperature for 2 hr for blocking.
Separately, phosphate buffered saline (50 μl, pH 7.4) containing 5 μg/ml of anti-phospho-tyrosine antibody (PY20; Transduction Laboratories) was added to a microplate for ELISA (Maxisorp; purchased from NUNC), followed by standing at 4° C. overnight to form a solid phase on the wells. After washing of the plate, 300 μl of a blocking solution was added, followed by standing at room temperature for 2 hr to perform blocking. After washing, the whole quantity of the cell extract was transferred to the wells, and the plate was then allowed to stand at 4° C. overnight. After washing, anti-c-fms antiserum (Upstate Biotechnology, Inc.) was allowed to react at room temperature for one hr, and, after washing, a peroxidase-labeled anti-rabbit Ig antibody (Amersham) was allowed to react at room temperature for one hr. After washing, a chromophoric substrate for peroxidase (Sumitomo Bakelite Co., Ltd.) was added thereto to initiate a reaction. After a suitable level of color development, a reaction termination solution was added to stop the reaction, and the absorbance at 450 nm was measured with a microplate reader. The c-fms phosphorylation activity for each well was determined by presuming the absorbance without the addition of the test compound and with the addition of M-CSF to be 100% c-fms phosphorylation activity and the absorbance without the addition of the test compound and M-CSF to be 0% c-fms phosphorylation activity. The concentration of the test compound was varied on several levels, the c-fms phosphorylation inhibitory rate was determined for each case, and the concentration of the test compound necessary for inhibiting 50% of c-fms phosphorylation (IC50) was calculated.

Row | IC50 [nM] | SMILES
1 | 5 | CC[C@H](NC(=O)Nc1ccc(Oc2ccnc3cc(OC)c(OC)cc23)cc1)c1ccccc1 [Example 37, N-{4-[(6,7-Dimethoxy-4-quinolyl)oxy]phenyl}-N′-[(1S)-1-phenylpropyl]urea]
2 | 5.7 | CC[C@@H](NC(=O)Nc1ccc(Oc2ccnc3cc(OC)c(OC)cc23)cc1)c1ccccc1 [Example 38, N-{4-[(6,7-Dimethoxy-4-quinolyl)oxy]phenyl}-N′-[(1R)-1-phenylpropyl]urea]
3 | 3.1 | COc1cc2nccc(Oc3ccc(NC(=O)N[C@H]4CCc5ccccc54)cc3)c2cc1OC [Example 43, N-[(1S)-2,3-Dihydro-1H-1-indenyl]-N′-{4-[(6,7-dimethoxy-4-quinolyl)oxy]phenyl}urea]
4 | 1.8 | COc1cc2nccc(Oc3ccc(NC(=O)N[C@@H]4CCc5ccccc54)cc3)c2cc1OC [Example 44, N-[(1R)-2,3-Dihydro-1H-1-indenyl]-N′-{4-[(6,7-dimethoxy-4-quinolyl)oxy]phenyl}urea]
5 | 2.1 | COc1cc(Oc2ccnc3cc(OC)c(OC)cc23)ccc1NC(=O)N[C@@H](C)c1nccs1 [Example 75, N-{4-[(6,7-Dimethoxy-4-quinolyl)oxy]-2-methoxyphenyl}-N′-[(1S)-1-(1,3-thiazol-2-yl)ethyl]urea]
6 | 7.1 | COc1cc(Oc2ccnc3cc(OC)c(OC)cc23)ccc1NC(=O)N[C@H](C)c1nccs1 [Example 76, N-{4-[(6,7-Dimethoxy-4-quinolyl)oxy]-2-methoxyphenyl}-N′-[(1R)-1-(1,3-thiazol-2-yl)ethyl]urea]
7 | 53.5 | COc1cc2nccc(Oc3ccc(NC(=O)NC(C)c4nc(C)c(C)s4)cc3)c2cc1OC (centres unmarked) [Example 94, N-{4-[(6,7-Dimethoxy-4-quinolyl)oxy]phenyl}-N′-[1-(4,5-dimethyl-1,3-thiazol-2-yl)ethyl]urea]
8 | 38.3 | COc1cc2nccc(Oc3ccc(NC(=O)NC(C)c4nc(C)c(C)s4)c(F)c3)c2cc1OC (centres unmarked) [Example 95, N-{4-[(6,7-Dimethoxy-4-quinolyl)oxy]-2-fluorophenyl}-N′-[1-(4,5-dimethyl-1,3-thiazol-2-yl)ethyl]urea]
9 | 147 | COc1cc2nccc(Oc3ccc(NC(=O)NC(C)c4nc(C)c(C)s4)c(C)c3)c2cc1OC (centres unmarked) [Example 96, N-{4-[(6,7-Dimethoxy-4-quinolyl)oxy]-2-methylphenyl}-N′-[1-(4,5-dimethyl-1,3-thiazol-2-yl)ethyl]urea]
10 | 120 | COc1cc2nccc(Oc3ccc(NC(=O)NC(C)c4nc(C)c(C)s4)c(C(F)(F)F)c3)c2cc1OC (centres unmarked) [Example 97, N-[4-[(6,7-Dimethoxy-4-quinolyl)oxy]-2-(trifluoromethyl)phenyl]-N′-[1-(4,5-dimethyl-1,3-thiazol-2-yl)ethyl]urea]
11 | 426 | COc1cc2nccc(Oc3cc(C)c(NC(=O)NC(C)c4nc(C)c(C)s4)cc3C)c2cc1OC (centres unmarked) [Example 98, N-{4-[(6,7-Dimethoxy-4-quinolyl)oxy]-2,5-dimethylphenyl}-N′-[1-(4,5-dimethyl-1,3-thiazol-2-yl)ethyl]urea]
